Key:
Experiment in all cases: relative viability (nuclei count vs DMSO), 5 days (fraction); higher = more cells survive
[1] = compound: CN(C)CC1=CC(=CC=C1)N=C(C2=CC=CC=C2)C3=C(NC4=C3C=CC(=C4)C(=O)N(C)C)O + O=C(c1cc(Cc2n[nH]c(=O)c3ccccc23)ccc1F)N1CCN(C(=O)C2CC2)CC1 [Olaparib] (partner 8 µM)
Procedure, shortened: (§1)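 Lung cancer cell lines in 1536-well plates were dosed by pin tool the day after seeding, either with one drug alone or with a fixed anchor-drug dose plus five library-drug doses (not always all listed) in √10 steps. After 5 days, cells were fixed and their nuclei stained in one step (final 0.05% Triton X-100, 1% formaldehyde, 1 ug/ml Hoechst), then counted on 4× images. Relative viability is the nuclei count in treated wells divided by that in vehicle wells. Values are medians of duplicate plates.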

[2] = compound: CN(C)CC1=CC(=CC=C1)N=C(C2=CC=CC=C2)C3=C(NC4=C3C=CC(=C4)C(=O)N(C)C)O + CC(=O)Nc1cccc(-n2c(=O)n(C3CC3)c(=O)c3c(Nc4ccc(I)cc4F)n(C)c(=O)c(C)c32)c1 [Trametinib] (partner 0.02 µM)
Procedure, shortened: as §1

[3] = compound: CN(C)CC1=CC(=CC=C1)N=C(C2=CC=CC=C2)C3=C(NC4=C3C=CC(=C4)C(=O)N(C)C)O + N=C(N)NC(=N)NCCc1ccccc1 [Phenformin] (partner 250 µM)
Procedure, shortened: as §1

[4] = compound: CN(C)CC1=CC(=CC=C1)N=C(C2=CC=CC=C2)C3=C(NC4=C3C=CC(=C4)C(=O)N(C)C)O
Procedure, shortened: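 Lung cancer cell lines received five library-drug doses (not always all listed) spaced by √10, pinned on vehicle-anchored 1536-well plates after an overnight stay at 37 °C. Five days later, with no medium change, nuclei were Hoechst-stained, imaged at 4× and counted with MetaXpress. Viability is treated-well nuclei relative to vehicle-well nuclei, as a median across plates. Passing plates had control CV below 25% and at least one doubling.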

| Cell Line | relative viability ([1]; first compound 0.08 µM) | relative viability ([1]; first compound 0.253 µM) | relative viability ([1]; first compound 0.8 µM) | relative viability ([1]; first compound 2.53 µM) | relative viability ([1]; first compound 8 µM) | relative viability ([2]; first compound 0.08 µM) | relative viability ([2]; first compound 0.253 µM) | relative viability ([2]; first compound 0.8 µM) | relative viability ([2]; first compound 2.53 µM) | relative viability ([2]; first compound 8 µM) | relative viability ([3]; first compound 0.08 µM) | relative viability ([3]; first compound 0.253 µM) | relative viability ([3]; first compound 0.8 µM) | relative viability ([3]; first compound 2.53 µM) | relative viability ([3]; first compound 8 µM) | relative viability ([4]; 0.08 µM) | relative viability ([4]; 0.253 µM) | relative viability ([4]; 0.8 µM) | relative viability ([4]; 2.53 µM) | relative viability ([4]; 8 µM) |
| --- | --- | --- | --- | --- | --- | --- | --- | --- | --- | --- | --- | --- | --- | --- | --- | --- | --- | --- | --- | --- |
| PC-14 | 0.325 | 0.212 | 0.23 | 0.294 | 0.312 | 0.932 | 0.904 | 0.968 | 0.8 | 0.76 | 0.572 | 0.545 | 0.617 | 0.602 | 0.734 | 1.12 | 0.951 | 1.08 | 0.988 | 1.02 |
| NCI-H1563 |  |  |  |  |  |  |  |  |  |  | 0.641 | 0.7 | 0.654 | 0.648 | 0.658 | 1.02 | 1 | 0.905 | 0.861 | 0.783 |
| NCI-H2009 | 0.726 | 0.722 | 0.732 | 0.649 | 0.669 | 0.276 | 0.314 | 0.271 | 0.297 | 0.244 | 0.508 | 0.484 | 0.49 | 0.416 | 0.372 | 1.03 | 0.987 | 1.1 | 0.973 | 0.97 |
| LK-2 | 0.901 | 0.653 | 0.572 | 0.679 | 0.489 | 0.776 | 0.861 | 0.674 | 0.835 | 0.655 | 0.511 | 0.475 | 0.306 | 0.374 | 0.244 | 1.13 | 1.04 | 0.909 | 0.991 | 0.853 |
| NCI-H838 | 0.789 | 0.901 | 0.751 | 0.726 | 0.665 | 0.528 | 0.51 | 0.494 | 0.473 | 0.431 | 0.57 | 0.584 | 0.585 | 0.537 | 0.503 | 1 | 0.976 | 0.977 | 0.902 | 0.785 |
| HCC-44 | 0.975 | 0.995 | 0.967 | 0.904 | 1.04 | 1.04 | 1.04 | 1.08 | 1.04 | 1.12 | 0.179 | 0.4 | 0.185 | 0.192 | 0.176 | 1.08 | 0.987 | 1.03 | 0.949 | 1.05 |
| LC-2-ad | 0.663 | 0.771 | 0.729 | 0.723 | 0.827 | 0.86 | 0.885 | 0.893 | 0.866 | 0.841 | 0.623 | 0.582 | 0.563 | 0.526 | 0.575 | 1.01 | 1.04 | 1.08 | 0.925 | 0.84 |
| NCI-H1755 | 0.835 | 0.898 | 0.923 | 0.825 | 0.794 | 0.844 | 0.709 | 0.708 | 0.779 | 0.736 | 0.577 | 0.58 | 0.601 | 0.549 | 0.566 | 0.981 | 0.967 | 0.971 | 0.983 | 0.987 |
| NCI-H1944 | 0.424 | 0.389 | 0.373 | 0.42 | 0.377 | 0.44 | 0.4 | 0.337 | 0.464 | 0.373 | 0.2 | 0.217 | 0.183 | 0.177 | 0.187 | 0.956 | 1.03 | 0.892 | 0.903 | 0.823 |
| CAL-12T | 0.704 | 0.67 | 0.81 | 0.654 | 0.829 | 0.389 | 0.399 | 0.338 | 0.459 | 0.354 | 0.55 | 0.563 | 0.529 | 0.555 | 0.543 | 1.07 | 1.02 | 1.09 | 1.01 | 1.12 |
| NCI-H1648 | 0.867 | 0.72 |  | 0.709 | 1.28 | 0.482 | 0.368 |  | 0.534 | 0.554 |  |  |  |  |  | 0.851 | 0.657 | 0.749 | 0.884 | 0.915 |
| ABC-1 | 0.91 | 0.907 | 0.952 | 0.635 | 0.756 |  |  |  |  |  | 0.205 | 0.277 | 0.231 | 0.207 | 0.243 | 1.1 | 1.05 | 0.971 | 0.891 | 0.864 |
| IA-LM | 0.941 | 0.793 | 1.02 | 0.957 | 0.962 |  |  |  |  |  |  |  |  |  |  | 0.961 | 0.871 | 1.03 | 1.07 | 1.13 |
| A549 | 0.294 | 0.372 | 0.401 | 0.148 | 0.406 |  |  |  |  |  | 0.202 | 0.157 | 0.124 | 0.0946 | 0.16 | 1.01 | 0.991 | 1.01 | 0.929 | 0.901 |
| Calu-6 | 0.558 | 0.549 | 0.571 | 0.565 | 0.63 |  |  |  |  |  |  |  |  |  |  | 1.1 | 1.05 | 1.01 | 0.986 | 0.977 |
| NCI-H1703 | 0.375 | 0.559 | 0.39 | 0.199 | 0.214 |  |  |  |  |  |  |  |  |  |  | 0.989 | 0.847 | 1.11 | 0.63 | 0.349 |
